From patent US8168651B2, “Protein kinase modulators” (Cylene Pharmaceuticals, Inc., priority 2008, dated 2012)
Read-outs that look alike come from different tables or passages of the source.

What was measured:
Jurkat = experiment: Cell proliferation modulatory activity, Jurkat; type: cell-based; details: Homo sapiens
recombinant human PIM1 = recombinant human PIM1 (Homo sapiens (Human), UniProt P11309); experiment: PIM-1 kinase activity in cell-free in vitro assay; type: biochemical; details: for inhibition at 0.5 µM: 500 nM compound, read-out: PIM-1: % inh 500 nM
recombinant human PIM1, sequence (P11309 whole entry): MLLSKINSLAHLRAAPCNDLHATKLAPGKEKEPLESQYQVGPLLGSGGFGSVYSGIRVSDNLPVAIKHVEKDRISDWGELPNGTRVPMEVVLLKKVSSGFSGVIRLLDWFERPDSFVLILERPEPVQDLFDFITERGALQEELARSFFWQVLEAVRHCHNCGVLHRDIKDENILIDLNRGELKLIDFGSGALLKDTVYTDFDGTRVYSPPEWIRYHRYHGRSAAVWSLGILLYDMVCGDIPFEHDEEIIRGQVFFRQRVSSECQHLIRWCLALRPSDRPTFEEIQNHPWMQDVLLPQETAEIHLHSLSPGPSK

[1] = system: HCT-116 human colorectal carcinoma cells; experiment: Cell-proliferation assay using Alamar Blue dye; type: cell-based; details: Homo sapiens;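 note: cells exposed to compound for about 4 days, then Alamar Blue added and dye fluorescence read after about 4 h, compared with medium-only control wells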
MV-4-11 = experiment: Cell proliferation modulatory activity, MV-4-11; type: cell-based; details: Homo sapiens, MV4-11
K-562 [2] = experiment: Cell proliferation modulatory activity, K-562; type: cell-based; details: Homo sapiens, K562
[3] = system: MiaPaca human pancreatic carcinoma cells; experiment: Cell-proliferation assay using Alamar Blue dye; type: cell-based; details: MIA PaCa-2
Procedure: (§1) A representative cell-proliferation assay protocol using Alamar Blue dye (stored at 4° C., use 20 ul per well) is described hereafter.
(§2) • a. Split and trypsinize cells. • b. Count cells using hemocytometer. • c. Plate 4,000-5,000 cells per well in 100 μl of medium and seed into a 96-well plate according to the following plate layout. Add cell culture medium only to wells B10 to B12. Wells B1 to B9 have cells but no compound added.
(§3) • d. Add 100 μl of 2× drug dilution to each well in a concentration shown in the plate layout above. At the same time, add 100 μl of media into the control wells (wells B10 to B12). Total volume is 200 μl/well. • e. Incubate four (4) days at 37° C., 5% CO2 in a humidified incubator. • f. Add 20 μl Alamar Blue reagent to each well. • g. Incubate for four (4) hours at 37° C., 5% CO2 in a humidified incubator. • h. Record fluorescence at an excitation wavelength of 544 nm and emission wavelength of 590 nm using a microplate reader.
(§4) In the assays, cells are cultured with a test compound for approximately four days, the dye then is added to the cells and fluorescence of […] dye is detected after approximately four hours. Different types of cells can be utilized in the assays (e.g., HCT-116 human colorectal carcinoma cells, PC-3 human prostatic cancer cells and MiaPaca human pancreatic carcinoma cells). Anti-proliferative effects of representative compounds are provided hereafter

MDA MB231 = MDA MB231 IC50 (Table 46); type: cell-based; details: Homo sapiens, MDA-MB-231
MV-411 = MV-411 IC50 (Table 46); type: cell-based; details: Homo sapiens, MV4-11
K-562 [4] = experiment: K-562 IC50 (Table 46); type: cell-based; details: Homo sapiens, K562
PARP-HSA enzyme = PARP-HSA enzyme (Homo sapiens (Human), UniProt P09874); experiment: PARP assay (chemiluminescent PARP assay kit, Trevigen); type: biochemical; details: for PARP Inhibition: at 1 μM
PARP-HSA enzyme, sequence (P09874 whole entry): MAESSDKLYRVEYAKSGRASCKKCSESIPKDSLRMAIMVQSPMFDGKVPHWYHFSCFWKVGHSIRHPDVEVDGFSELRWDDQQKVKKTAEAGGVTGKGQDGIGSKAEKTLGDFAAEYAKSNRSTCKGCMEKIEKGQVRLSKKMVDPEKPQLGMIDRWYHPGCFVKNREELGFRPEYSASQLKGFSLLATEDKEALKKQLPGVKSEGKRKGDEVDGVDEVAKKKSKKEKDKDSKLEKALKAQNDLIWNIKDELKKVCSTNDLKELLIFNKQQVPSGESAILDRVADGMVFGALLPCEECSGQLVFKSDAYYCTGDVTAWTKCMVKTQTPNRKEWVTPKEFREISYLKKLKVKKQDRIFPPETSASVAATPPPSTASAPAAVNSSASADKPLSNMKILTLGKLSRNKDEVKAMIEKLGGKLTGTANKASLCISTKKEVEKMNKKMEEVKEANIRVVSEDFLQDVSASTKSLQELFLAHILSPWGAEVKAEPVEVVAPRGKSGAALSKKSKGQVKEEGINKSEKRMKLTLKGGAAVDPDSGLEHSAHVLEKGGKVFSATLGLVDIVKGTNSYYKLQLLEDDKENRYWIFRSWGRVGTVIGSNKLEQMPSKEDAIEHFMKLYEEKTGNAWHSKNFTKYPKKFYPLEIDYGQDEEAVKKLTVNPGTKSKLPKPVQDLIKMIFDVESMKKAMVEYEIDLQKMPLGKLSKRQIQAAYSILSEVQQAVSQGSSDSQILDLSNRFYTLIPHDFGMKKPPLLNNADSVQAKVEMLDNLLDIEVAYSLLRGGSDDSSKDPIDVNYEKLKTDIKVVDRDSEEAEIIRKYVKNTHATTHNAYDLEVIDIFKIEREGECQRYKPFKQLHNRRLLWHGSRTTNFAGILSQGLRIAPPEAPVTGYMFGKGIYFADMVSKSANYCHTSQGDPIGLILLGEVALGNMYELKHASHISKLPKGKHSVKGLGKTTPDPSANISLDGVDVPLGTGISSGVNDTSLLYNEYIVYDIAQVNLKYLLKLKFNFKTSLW
Procedure: Modulatory activity of compounds described herein was assessed in vitro in cell-free CK2 assays. Modulatory activity of compounds described herein also are assessed in vitro in cell-free PARP assays. These assays are described hereafter.
PARP assays are conducted using a chemiluminescent PARP assay kit (Trevigen). Briefly, reactions are performed in Histone-coated strip wells, by adding 10 microliters test compound dissolved in 1×PARP Buffer (prepared by mixing 20×PARP buffer diluted with high-purity water) and 15 microliters diluted PARP-HSA enzyme (diluted in 1×PARP buffer, 0.1 unit per well) to 25 microliters PARP cocktail (prepared from 10×PARP cocktail and 10× activated DNA, both 2.5 microliters per well and 20 microliters per well of 1×PARP buffer). The reactions are incubated at ambient temperature for 60 minutes, then the liquid was removed. After washing the wells four times with PBS (200 ul), 50 microliters of STREP-HRP (Horseradish Peroxidase) solution (diluted 500-fold in 1× Strep-Diluent) was added and the reactions were allowed to incubate for 30 minutes at ambient temperature. The liquid was removed and, after washing the wells four times with PBS (200 ul), 50 microliters each of PeroxyGlo A and B (Chemiluminescent Horseradish Peroxidase substrates) are added and the resulting chemiluminescence quantified on the SpectraMax M5 plate reader.

MDAMB231 = experiment: Cell-proliferation assay using Alamar Blue dye; type: cell-based; details: Homo sapiens, MDA-MB-231
Procedure: as §1
96-Well Plate Setup and Compound Treatment
as §2, §3, §4

recombinant human CK2 = recombinant human CK2 (Homo sapiens (Human), UniProt P68400); experiment: CK2 assay (cell-free, 33P-ATP filter plate); type: biochemical; details: 500 nM compound, cell-free; read-out: CK2: % inh 500 nM
recombinant human CK2, sequence (P68400 whole entry): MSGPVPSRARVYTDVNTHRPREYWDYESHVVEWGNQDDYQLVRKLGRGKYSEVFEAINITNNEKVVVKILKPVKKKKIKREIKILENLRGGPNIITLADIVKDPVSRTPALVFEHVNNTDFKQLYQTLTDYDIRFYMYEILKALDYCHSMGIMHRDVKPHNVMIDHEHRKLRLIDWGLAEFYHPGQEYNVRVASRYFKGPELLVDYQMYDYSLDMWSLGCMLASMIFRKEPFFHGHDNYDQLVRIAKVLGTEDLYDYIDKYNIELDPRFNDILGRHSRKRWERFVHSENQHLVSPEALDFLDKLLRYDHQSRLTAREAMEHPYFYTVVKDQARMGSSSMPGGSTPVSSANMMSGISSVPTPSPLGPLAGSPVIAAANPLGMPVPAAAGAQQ
recombinant human CK2, sequence (P67870 whole entry partner): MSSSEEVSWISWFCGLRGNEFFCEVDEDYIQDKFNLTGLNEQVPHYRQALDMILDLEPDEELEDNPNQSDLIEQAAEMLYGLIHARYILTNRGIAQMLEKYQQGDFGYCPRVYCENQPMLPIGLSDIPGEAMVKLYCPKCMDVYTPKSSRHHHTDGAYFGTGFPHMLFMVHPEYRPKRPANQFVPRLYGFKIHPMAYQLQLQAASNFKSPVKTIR

[5] = HCT-116, read-out: HCT-116 (uM), cell proliferation modulatory activity, HCT-116, second column
[6] = HCT-116, HCT-116, second column, read-out: HCT-116 (uM), cell proliferation modulatory activity

Row | SMILES | IC50 (Jurkat) | inhibition at 0.5 µM (recombinant human PIM1; cell-free) | IC50 (MDAMB231) | further results
1 | Fc1cccc(Nc2nc3cc(-c4nnn[nH]4)ccc3c3cnccc23)c1 | 9.43 µM | 45% | – | –
2 | O=C(O)c1ccc2c(c1)nc(Nc1cc(Cl)cc(Cl)c1)c1ccsc12 | 4.31 µM | 67.1% | – | IC50 [1, 5]: 8.76 µM
3 | CNc1ncc2c(n1)c(Nc1ccccc1)nc1cc(C(=O)O)ccc12 | 0.728 µM | 20.8% | – | IC50 (MV-4-11): > 10 µM; IC50 [1, 5]: 2.99 µM
4 | O=C(O)c1ccc2c(c1)nc(Nc1ccc(Cl)cc1)c1ccncc12 | 2.52 µM | 83% | – | IC50 (recombinant human PIM1; cell-free): 0.284 µM; IC50 (MV-4-11): 1.56 µM; IC50 [1, 5]: 6.72 µM; IC50 (K-562 [2]): 8.65 µM
5 | COCCOc1ccc(Nc2nc3c(-c4nnc[nH]4)cccc3c3cnccc23)c(F)c1 | – | – | – | IC50 (recombinant human PIM1): < 0.1 µM; IC50 [3]: < 1 µM; IC50 (MDA MB231): < 1 µM; IC50 (MV-411): < 0.1 µM; IC50 (K-562 [4]): < 0.5 µM
6 | COC(=O)c1ccc2c(c1)[nH]c(=O)c1ccncc12 [drawing 562] | – | – | – | IC50 (PARP-HSA enzyme; read-out: PARP Inhibition IC50): 0.8 µM
7 | CN(C)CCNc1nc2cc(C(=O)O)ccc2c2ccccc12 [drawing 563] | – | – | – | PARP Inhibition (PARP-HSA enzyme): 15% (at 1 μM)
8 | O=C(O)c1ccc2c(c1)nc(Nc1ccccc1)c1ccccc12 [drawing 564] | – | – | – | PARP Inhibition (PARP-HSA enzyme): 9% (at 1 μM)
9 | O=C(O)c1ccc2c(c1)nc(NC1CC1)c1nc(Nc3ccccc3)ncc12 [drawing 1051] | – | – | 6.88 µM | –
10 | O=C(O)c1ccc2c(c1)nc(Nc1cncc(C3CC3)c1)c1ccncc12 [drawing 1052] | – | – | > 50 µM | –
11 | O=C(O)c1ccc2c(c1)nc(NCc1cccnc1)c1nc(NC3CC3)ncc12 [drawing 1058] | – | – | > 50 µM | –
12 | O=C(O)c1ccc2c(c1)nc(NCc1ccccc1)c1nc(NC3CC3)ncc12 [drawing 1059] | – | – | > 50 µM | –
13 | O=C(O)c1ccc2c(c1)nc(N1CCOCC1)c1nc(NC3CC3)ncc12 [drawing 1060] | – | – | > 50 µM | –
14 | CC1CCCCN1CCCNc1ncc2c(n1)c(Nc1ccc(F)c(Cl)c1)nc1cc(C(=O)O)ccc12 (stereo not shown) [drawing 1062] | – | – | 9.66 µM | –
15 | Cc1cc(Nc2ncc3c(n2)c(Nc2ccc(F)c(Cl)c2)nc2cc(C(=O)O)ccc23)[nH]n1 [drawing 1068] | – | – | > 50 µM | –
16 | O=C(O)c1ccc2c(c1)nc(NC1CC1)c1ccncc12 [drawing 1072] | – | – | > 50 µM | –
17 | COC(=O)c1ccc2c(c1)nc(NC1CC1)c1nc(SC)ncc12 [drawing 1074] | – | – | 34.2 µM | –
18 | CN(C)CCNc1nc2cc(C(=O)O)ccc2c2cnc(NC3CC3)nc12 [drawing 1075] | – | – | > 50 µM | –
19 | Nc1ncc2c(n1)c(NC1CC1)nc1cc(C(=O)O)ccc12 [drawing 1077] | – | – | > 50 µM | –
20 | CCCNc1ncc2c(n1)c(NC1CC1)nc1cc(C(=O)O)ccc12 [drawing 1078] | – | – | 4.36 µM | –
21 | O=C(O)c1ccc2c(c1)nc(Nc1cccc(Cl)c1)c1ccncc12 [drawing 1512] | 3.42 µM | 90% | – | IC50 (MV-4-11): 1.68 µM; IC50 [1, 6]: 5.09 µM; inhibition at 0.5 µM (recombinant human CK2): 102%; IC50 (K-562 [2]): 4.39 µM
22 | C#Cc1cccc(Nc2nc3cc(C(=O)O)ccc3c3cncnc23)c1 [drawing 1544] | 3.34 µM | 65.9% | – | IC50 (recombinant human PIM1; cell-free): 0.306 µM; IC50 (MV-4-11): 0.464 µM; IC50 [1, 6]: 5.86 µM; IC50 (K-562 [2]): 2.48 µM
23 | C#Cc1cccc(Nc2nc3cc(C(=O)O)ccc3c3cnccc23)c1 [drawing 1555] | 2.78 µM | 84.1% | – | IC50 (recombinant human PIM1; cell-free): 0.296 µM; IC50 (MV-4-11): > 10 µM; IC50 (K-562 [2]): 3.33 µM
